The target in this test is Serotonin 5HT7 receptors (Homo sapiens (Human), UniProt P34969). The test is described as follows: Radiolabel Binding Studies for Serotonin 5HT7 receptors. The note with it: read-out: 5-HT7 % inhib @ 10 uM.
Sequence of Serotonin 5HT7 receptors (P34969 whole entry): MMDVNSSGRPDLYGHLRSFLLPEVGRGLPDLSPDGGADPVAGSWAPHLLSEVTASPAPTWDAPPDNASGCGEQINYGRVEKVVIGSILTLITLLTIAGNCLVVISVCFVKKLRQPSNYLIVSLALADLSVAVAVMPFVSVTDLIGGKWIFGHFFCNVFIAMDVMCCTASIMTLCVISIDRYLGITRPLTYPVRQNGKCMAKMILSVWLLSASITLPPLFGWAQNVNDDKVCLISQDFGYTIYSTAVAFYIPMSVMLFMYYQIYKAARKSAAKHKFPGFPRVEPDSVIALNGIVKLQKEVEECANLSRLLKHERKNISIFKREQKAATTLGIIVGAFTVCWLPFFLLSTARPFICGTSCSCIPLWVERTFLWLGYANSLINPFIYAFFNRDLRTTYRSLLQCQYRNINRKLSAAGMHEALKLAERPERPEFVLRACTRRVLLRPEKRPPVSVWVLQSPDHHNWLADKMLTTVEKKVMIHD

Description: Radiolabel Binding Studies for Serotonin 5HT7 Receptors, Method 1:
Eleven dilutions (5× assay concentration) of the compound of the disclosure and chlorpromazine are prepared in the Assay Buffer by serial dilution to yield final corresponding assay concentrations ranging from 10 pM to 10 μM.
A stock concentration of 5 nM [^3H]LSD (lysergic acid diethyl amide) is prepared in 50 mM Tris-HCl, 10 mM MgCl2, 1 mM EDTA, pH 7.4 (Assay Buffer). Aliquots (50 μl) of radioligand are dispensed into the wells of a 96-well plate containing 100 μl of Assay Buffer. Duplicate 50-μl aliquots of the compound of the disclosure test and chlorpromazine positive control reference compound serial dilutions are added.
Membrane fractions of cells expressing recombinant 5HT7 receptors (50 μL) are dispensed into each well. […]
The 250-μl reactions are incubated at room temperature for 1.5 hours, then harvested by rapid filtration onto 0.3% polyethyleneimine-treated, 96-well filter mats using a 96-well Filtermate harvester. […] The filter mats are dried, then scintillant is added to the filters and the radioactivity retained on the filters is counted in a Microbeta scintillation counter. […]

Take `CC1(C)CC(CCN2CCN(c3ccccc3C#N)CC2)OC1=O` (stereo not shown) [Entry 19]: the inhibition at 10 µM was determined as 85.7%.
